This is an account of results in patent US11214578B2, “Urea/carbamates FAAH MAGL or dual FAAH/MAGL inhibitors and uses thereof” (Northeastern University, priority 2014, dated 2022).

Structures are written as SMILES.

Holding throughout (type): biochemical
One experiment addresses T1, Rat MAGL (rMAGL) (Rattus norvegicus, UniProt Q8R431).
T1 construct: made in house; host or cells: E. coli
T1 sequence (Q8R431 1-303): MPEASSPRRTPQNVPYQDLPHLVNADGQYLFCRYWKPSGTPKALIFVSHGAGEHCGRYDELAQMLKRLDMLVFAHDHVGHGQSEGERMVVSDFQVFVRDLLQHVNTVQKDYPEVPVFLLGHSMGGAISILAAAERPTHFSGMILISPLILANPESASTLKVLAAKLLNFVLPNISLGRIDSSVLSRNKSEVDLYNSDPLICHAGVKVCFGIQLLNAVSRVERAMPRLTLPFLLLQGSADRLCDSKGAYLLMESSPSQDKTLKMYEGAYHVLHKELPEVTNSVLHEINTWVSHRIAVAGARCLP
Description: Fluorescent assay protocol for rMAGL. As to conditions: recombinant rat MAGL, procedure as for hMAGL; read-out: IC50 rMAGL. The procedure:
(§1) This medium throughput assay involved a 96-well plate format in which hMAGL activity was monitored by the hydrolysis of the substrate 7-hydroxy-6-methoxy-4-methylcoumarin ester (AHMMCE) to form the fluorescent product, coumarin. […] Upon the addition of AHMMCE, the reaction was incubated at 25° C. for 120 min; fluorescence readings were taken every 15 min at 360 nm/460 nm (λexcitation/λemission) using a Synergy HT Plate Reader (Bio-Tek, Winooski, Vt.). […] External standards were used to convert relative fluorescence units to the amount of 4-methylcoumarin formed. All MAGL assays were performed in triplicate for each inhibitor concentration, and IC50 values were calculated using Prizm software (GraphPad Software, Inc., San Diego, Calif.).
Procedure was followed as described for hMAGL.

The next experiment concerns the target T2, Human FAAH (MBPΔTMhFAAH) (Homo sapiens, UniProt O00519).
T2 construct: made in house; host or cells: E. coli (pMALcE4 vector)
T2 sequence (O00519 30-579 limits assumed): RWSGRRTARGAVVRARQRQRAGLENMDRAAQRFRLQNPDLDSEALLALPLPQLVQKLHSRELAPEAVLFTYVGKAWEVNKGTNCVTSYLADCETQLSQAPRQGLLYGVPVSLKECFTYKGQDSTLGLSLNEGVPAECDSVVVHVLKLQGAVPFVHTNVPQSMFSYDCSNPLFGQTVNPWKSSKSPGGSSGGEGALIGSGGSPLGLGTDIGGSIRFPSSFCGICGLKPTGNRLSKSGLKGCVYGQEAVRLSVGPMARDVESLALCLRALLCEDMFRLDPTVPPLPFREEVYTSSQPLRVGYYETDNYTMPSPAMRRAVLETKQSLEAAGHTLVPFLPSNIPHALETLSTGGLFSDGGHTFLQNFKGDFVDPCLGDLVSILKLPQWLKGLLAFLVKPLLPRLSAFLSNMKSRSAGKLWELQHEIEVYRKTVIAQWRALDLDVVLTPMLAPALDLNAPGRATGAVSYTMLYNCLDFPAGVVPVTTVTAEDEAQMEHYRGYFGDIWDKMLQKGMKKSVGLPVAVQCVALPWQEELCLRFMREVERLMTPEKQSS
Description: Fluorescent assay protocol for hFAAH. The settings on record: human FAAH (MBP fusion, ΔTM), procedure as for rFAAH. Here is the method:
Human FAAH without putative transmembrane domain following maltose binding protein was expressed in E. coli cells using pMALcE4 vector Alapafuja et al J. Med. Chem. (2012) 55: 10074-89.
Procedure was followed as described for hMAGL, except that arachidonoyl-methyl coumarin amide (AAMCA) was used as fluorigenic substrate. Compounds were diluted in 50:50 DMSO/assay buffer (50 mM HEPES, 1 mM EDTA, 0.1% BSA, pH 7.4) so as to have a final DMSO concentration below 8% in each reaction. For the screening assay, 3 concentrations (1 μM, 10 μM, and 100 μM) of test compounds, 15 μg of ΔTM rFAAH and assay buffer were pre-incubated for 15 min at 25° C. AAMCA (20 μM, 2×Km) was added prior to incubation at 25° C. and kinetic fluorescence reading every 20 minutes (λex=360/λem=460) for 4 hours on a BioTek Synergy HT Microplate Reader (BioTek Instruments, Winooski, Vt.). The fluorescence reading at the 3 hour time point (linear enzyme kinetics) was used to calculate percent inhibition based on control assays without inhibitor present. All FAAH assays were performed in triplicate for each inhibitor concentration, and IC50 values determined using Prizm software (GraphPad Software, Inc.).
Procedure was followed as described for rFAAH.

A further experiment addresses T3, Human MAGL (hMAGL) (Homo sapiens, UniProt Q99685).
T3 construct: hexahistidine; made in house; host or cells: E. coli
T3 sequence (Q99685 1-303): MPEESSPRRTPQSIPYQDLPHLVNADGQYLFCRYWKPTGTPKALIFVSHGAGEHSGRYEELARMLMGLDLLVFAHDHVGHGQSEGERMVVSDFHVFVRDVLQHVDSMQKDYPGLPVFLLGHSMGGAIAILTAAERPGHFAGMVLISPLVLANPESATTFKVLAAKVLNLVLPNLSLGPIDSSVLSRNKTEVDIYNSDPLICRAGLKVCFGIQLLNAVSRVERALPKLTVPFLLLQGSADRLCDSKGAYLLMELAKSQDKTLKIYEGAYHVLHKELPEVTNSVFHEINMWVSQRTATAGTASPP
The experiment is described as follows: Fluorescent assay protocol for hMAGL (AHMMCE substrate). The settings on record: recombinant human MAGL, AHMMCE substrate, 15 min preincubation; read-out: IC50 hMAGL. The procedure: as §1

The target in a further experiment is T4, ΔTM rat FAAH (Rattus norvegicus, UniProt P97612).
T4 construct: Preparation of Transmembrane Domain-Deleted Rat FAAH (ΔTM rFAAH); made in house; host or cells: E. coli
T4 sequence (P97612 30-579 limits assumed): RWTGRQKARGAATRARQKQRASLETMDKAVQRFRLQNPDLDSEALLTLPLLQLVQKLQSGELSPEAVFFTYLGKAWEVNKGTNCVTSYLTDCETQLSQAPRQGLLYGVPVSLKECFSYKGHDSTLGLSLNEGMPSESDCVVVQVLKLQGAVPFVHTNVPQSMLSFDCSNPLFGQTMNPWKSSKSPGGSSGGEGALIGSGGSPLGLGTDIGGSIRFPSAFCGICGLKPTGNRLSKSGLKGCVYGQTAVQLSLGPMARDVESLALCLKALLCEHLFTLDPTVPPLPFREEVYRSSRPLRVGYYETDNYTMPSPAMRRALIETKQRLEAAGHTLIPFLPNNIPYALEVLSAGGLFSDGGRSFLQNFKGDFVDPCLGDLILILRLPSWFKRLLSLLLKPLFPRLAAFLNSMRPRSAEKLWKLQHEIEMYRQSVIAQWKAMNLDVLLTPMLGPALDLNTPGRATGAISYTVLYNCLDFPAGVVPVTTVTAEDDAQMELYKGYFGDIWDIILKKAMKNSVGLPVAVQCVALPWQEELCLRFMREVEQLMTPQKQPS
Description: Fluorescent assay protocol for ΔTM rat FAAH (AAMCA substrate). The settings on record: 15 min preincubation, read-out: IC50 rFAAH. The procedure: Procedure was followed as described for hMAGL, except that arachidonoyl-methyl coumarin amide (AAMCA) was used as fluorigenic substrate. […] For the screening assay, 3 concentrations (1 μM, 10 μM, and 100 μM) of test compounds, 15 μg of ΔTM rFAAH and assay buffer were pre-incubated for 15 min at 25° C. […] The fluorescence reading at the 3 hour time point (linear enzyme kinetics) was used to calculate percent inhibition based on control assays without inhibitor present. All FAAH assays were performed in triplicate for each inhibitor concentration, and IC50 values determined using Prizm software (GraphPad Software, Inc.).

What is called IC50 is the concentration that gives 50% inhibition. With `C[C@H]1CN(C(=O)n2cnc(-c3ccccc3)c2)CCN1Cc1cccc(-c2ccccc2)c1` [Example 21, (S)-(4-([1,1′-biphenyl]-3-ylmethyl)-3-methylpiperazin-1-yl)(4-phenyl-1H-imidazol-1-yl)methanone], the IC50 at Rat MAGL (rMAGL) is above 1000 nM; on Human FAAH (MBPΔTMhFAAH) it was 110 to 1000 nM; on Human MAGL (hMAGL), above 1000 nM; at ΔTM rat FAAH, 110 to 1000 nM.
For the molecule `C[C@H]1CN(Cc2cccc(Oc3ccccc3)c2)CCN1C(=O)n1cnc(Br)c1` [Example 22, (S)-(4-bromo-1H-imidazol-1-yl)(2-methyl-4-(3-phenoxybenzyl)piperazin-1-yl)methanone], the IC50 at Rat MAGL (rMAGL) was above 1000 nM; on Human FAAH (MBPΔTMhFAAH), 110 to 1000 nM; at Human MAGL (hMAGL), above 1000 nM; at ΔTM rat FAAH, 110 to 1000 nM.
In the case of `CC1CN(c2ccccc2)CCN1C(=O)n1cnc(-c2ccccc2)c1` (centres unmarked) [Example 23, (2-methyl-4-phenylpiperazin-1-yl)(4-phenyl-1H-imidazol-1-yl)methanone], the IC50 at Rat MAGL (rMAGL) was above 1000 nM; at Human FAAH (MBPΔTMhFAAH), 110 to 1000 nM; on Human MAGL (hMAGL) it was above 1000 nM; on ΔTM rat FAAH it was 10 to 100 nM.
As to `CC1CN(C(=O)n2cnc(-c3ccccc3)c2)CCN1c1ccccc1` (centres unmarked) [Example 24, (3-methyl-4-phenylpiperazin-1-yl)(4-phenyl-1H-imidazol-1-yl)methanone], the 50% inhibitory concentration (IC50) was above 1000 nM on Rat MAGL (rMAGL), 110 to 1000 nM on Human FAAH (MBPΔTMhFAAH), above 1000 nM on Human MAGL (hMAGL) and 10 to 100 nM at ΔTM rat FAAH.
On to `Cc1ccc(N2CCN(C(=O)n3cnc(-c4ccccc4)c3)CC2C)cc1` (centres unmarked) [Example 25, (3-methyl-4-(p-tolyl)piperazin-1-yl)(4-phenyl-1H-imidazol-1-yl)methanone], for which the IC50 on Rat MAGL (rMAGL) is above 1000 nM; at Human FAAH (MBPΔTMhFAAH), 10 to 100 nM; at Human MAGL (hMAGL), above 1000 nM; on ΔTM rat FAAH, 10 to 100 nM.
Turning to `CC1CN(C(=O)n2cnc(-c3ccccc3)c2)CCN1c1cccc(OCc2ccccc2)c1` (centres unmarked) [Example 26, (4-(3-(benzyloxy)phenyl)-3-methylpiperazin-1-yl)(4-phenyl-1H-imidazol-1-yl)methanone], the half-maximal inhibitory concentration (IC50) on Rat MAGL (rMAGL) was above 1000 nM; at Human FAAH (MBPΔTMhFAAH), 110 to 1000 nM; at Human MAGL (hMAGL), above 1000 nM; on ΔTM rat FAAH it was 10 to 100 nM.
Regarding `CC1CN(C(=O)n2cnc(-c3ccccc3)c2)CCN1c1cccc(O)c1` (centres unmarked) [Example 27, (4-(3-hydroxyphenyl)-3-methylpiperazin-1-yl)(4-phenyl-1H-imidazol-1-yl)methanone], the IC50 at Rat MAGL (rMAGL) is above 1000 nM; on Human FAAH (MBPΔTMhFAAH) it was 110 to 1000 nM; at Human MAGL (hMAGL) it was above 1000 nM; at ΔTM rat FAAH, 110 to 1000 nM.
Turning to `O=C(N1CCN(C(c2ccc(F)cc2)c2ccc(F)cc2)CC1)n1cnc(Br)c1` [Example 28, (4-(bis(4-fluorophenyl)methyl)piperazin-1-yl)(4-bromo-1H-imidazol-1-yl)methanone], the IC50 on Rat MAGL (rMAGL) was above 1000 nM; at Human FAAH (MBPΔTMhFAAH), 110 to 1000 nM; on Human MAGL (hMAGL) it was above 1000 nM; at ΔTM rat FAAH it was 110 to 1000 nM.
As for `O=C(N1CCN(C(c2ccc(F)cc2)c2ccc(F)cc2)CC1)n1cnc(-c2ccccc2)c1` [Example 29, (4-(bis(4-fluorophenyl)methyl)piperazin-1-yl)(4-phenyl-1H-imidazol-1-yl)methanone], the IC50 on Rat MAGL (rMAGL) was above 1000 nM; at Human FAAH (MBPΔTMhFAAH), 110 to 1000 nM; at Human MAGL (hMAGL), above 1000 nM; at ΔTM rat FAAH, 110 to 1000 nM.
Turning to `O=C(N1CCN(C(c2ccccc2)c2ccccc2)CC1)n1cnc(-c2ccccc2)c1` [Example 30, (4-benzhydrylpiperazin-1-yl)(4-phenyl-1H-imidazol-1-yl)methanone], the IC50 on Rat MAGL (rMAGL) was above 1000 nM; on Human FAAH (MBPΔTMhFAAH) it was 110 to 1000 nM; at Human MAGL (hMAGL), above 1000 nM; on ΔTM rat FAAH, above 1000 nM.
As to `O=C(N1CCN(C(c2ccccc2)c2ccccc2)CC1)n1nnnc1Cc1ccccc1` [Example 31, (4-benzhydrylpiperazin-1-yl)(5-benzyl-1H-tetrazol-1-yl)methanone], the IC50 was above 1000 nM on Rat MAGL (rMAGL), 10 to 100 nM on Human FAAH (MBPΔTMhFAAH), above 1000 nM on Human MAGL (hMAGL) and 10 to 100 nM at ΔTM rat FAAH.
Take `O=C(N1CCN(C(c2ccc(F)cc2)c2ccc(F)cc2)CC1)n1nnnc1Cc1ccccc1` [Example 32, (5-benzyl-1H-tetrazol-1-yl)(4-(bis(4-fluorophenyl)methyl)piperazin-1-yl)methanone]: the IC50 was above 1000 nM on Rat MAGL (rMAGL), 110 to 1000 nM at Human FAAH (MBPΔTMhFAAH), above 1000 nM on Human MAGL (hMAGL) and 110 to 1000 nM on ΔTM rat FAAH.
`COC(=O)c1ncn(C(=O)N2CCC(OC(c3ccc(F)cc3)c3ccc(F)cc3)CC2)n1` [Example 33, (3-(Carbomethoxy)-1H-1,2,4-triazol-1-yl)(4-(bis(4-fluorophenyl)methyoxy)pipe-ridin-1 yl)methanone]: the IC50 on Rat MAGL (rMAGL), on Human FAAH (MBPΔTMhFAAH), at Human MAGL (hMAGL) and on ΔTM rat FAAH was above 1000 nM in each case.
`O=C1CC2(CCC(C(=O)n3cnc(Br)c3)CC2)Oc2ccccc21` (centres unmarked) [Example 34, 4′-(4-bromo-1H-imidazole-1-carbonyl)spiro[chromane-2,1′-cyclohexan]-4-one]: the IC50 is above 1000 nM at Rat MAGL (rMAGL), 10 to 100 nM at Human FAAH (MBPΔTMhFAAH), above 1000 nM at Human MAGL (hMAGL) and 10 to 100 nM on ΔTM rat FAAH.
